The experiment has as its target T1, PAR4 (Homo sapiens, UniProt Q96RI0).
T1 construct: expressed in transfected cells; host or cells: HEK293 PAR4 Clone 1.2A (BMS Arctic ID 383940)
T1 sequence (Q96RI0 18-385): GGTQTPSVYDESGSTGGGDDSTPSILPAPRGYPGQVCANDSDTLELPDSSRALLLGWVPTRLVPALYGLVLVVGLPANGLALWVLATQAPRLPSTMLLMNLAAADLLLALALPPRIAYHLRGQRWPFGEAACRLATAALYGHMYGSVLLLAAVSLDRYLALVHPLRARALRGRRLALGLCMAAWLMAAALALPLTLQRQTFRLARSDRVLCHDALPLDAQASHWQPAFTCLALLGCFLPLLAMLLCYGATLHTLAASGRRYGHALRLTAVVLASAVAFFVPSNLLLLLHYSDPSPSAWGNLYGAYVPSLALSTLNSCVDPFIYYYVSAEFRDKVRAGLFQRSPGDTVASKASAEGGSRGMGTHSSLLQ
The experiment in a line: PAR4 FLIPR assay (antagonism of agonist peptide-induced calcium mobilization). The class given is cell-based. The gist of the method:
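Antagonism was taken as block of calcium mobilization evoked by the agonist peptide H-Ala-Phe(4-F)-Pro-Gly-Trp-Leu-Val-Lys-Asn-[…]-NH2, added after 30 min room-temperature compound preincubation in dye-loaded PAR4-transfected HEK293 cells (endogenous PAR1). Fluorescence was read on FDSS, with compound addition alone used as the agonist counter-screen; values come from 11-point concentration-response curves.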

This passage reports IC50 results from patent US11932658B2 (BRISTOL-MYERS SQUIBB COMPANY, priority 2016, dated 2024).

`COc1cnc2c(-c3nc4c(C)cc5c(c4s3)OCC(COC(=O)Nc3ccc(-n4cnc(C)n4)nc3)O5)cc(C)cc2n1` (stereo not shown) [Example 130, (2-(2-methoxy-7-methylquinoxalin-5-yl)-4-methyl-7,8-dihydro-[1,4]dioxino[2′,3′:3,4]benzo[1,2-d]thiazol-7-yl)methyl (6-(3-methyl-1H-1,2,4-triazol-1-yl)pyridin-3-yl)carbamate]: the half-inhibitory concentration (IC50) – broadly, the point on the concentration scale where inhibition reaches its midpoint – is 1.5 nM. As to `COc1cnc2c(-c3nc4c(C)cc5c(c4s3)OCC(COC(=O)Nc3ccc(C(F)(F)F)nc3)O5)cc(C)cc2n1` (stereo not shown) [Example 131, (2-(2-methoxy-7-methylquinoxalin-5-yl)-4-methyl-7,8-dihydro-[1,4]dioxino[2′,3′:3,4]benzo[1,2-d]thiazol-7-yl)methyl (6-(trifluoromethyl)pyridin-3-yl)carbamate], the IC50 worked out at 2 nM.

Take `COc1cnc2c(-c3nc4c(C)cc5c(c4s3)OCC(COC(=O)Nc3cncc(Cl)c3)O5)cc(C)cc2n1` (stereo not shown) [Example 132, (2-(2-methoxy-7-methylquinoxalin-5-yl)-4-methyl-7,8-dihydro-[1,4]dioxino[2′,3′:3,4]benzo[1,2-d]thiazol-7-yl)methyl (5-chloropyridin-3-yl)carbamate]: the IC50 turned out to be 3.9 nM. Turning to `CCOc1ccc(NC(=O)OCC2COc3c(cc(C)c4nc(-c5cc(C)cc6nc(OC)cnc56)sc34)O2)cn1` (stereo not shown) [Example 133, (2-(2-methoxy-7-methylquinoxalin-5-yl)-4-methyl-7,8-dihydro-[1,4]dioxino[2′,3′:3,4]benzo[1,2-d]thiazol-7-yl)methyl (6-ethoxypyridin-3-yl)carbamate], the IC50 worked out at 150 nM. For the molecule `COC(=O)c1cc(NC(=O)OCC2COc3c(cc(C)c4nc(-c5cc(C)cc6nc(OC)cnc56)sc34)O2)ccn1` (stereo not shown) [Example 134, methyl 4-((((2-(2-methoxy-7-methylquinoxalin-5-yl)-4-methyl-7,8-dihydro-[1,4]dioxino[2′,3′:3,4]benzo[1,2-d]thiazol-7-yl)methoxy)carbonyl)amino) picolinate], the 50% inhibitory concentration (IC50) stood at 3.3 nM.

`COc1cnc2c(-c3nc4c(C)cc5c(c4s3)OCC(COC(=O)Nc3cncc(C(F)(F)F)c3)O5)cc(C)cc2n1` (stereo not shown) [Example 135]: the concentration for half-maximal inhibition (IC50) came out at 1.4 nM. The value for `COc1cnc2c(-c3nc4c(C)cc5c(c4s3)OCC(COC(=O)Nc3ccc(N4CCN(C(=O)OC(C)(C)C)CC4)nc3)O5)cc(C)cc2n1` (stereo not shown) [Example 136, tert-butyl 4-(5-((((2-(2-methoxy-7-methylquinoxalin-5-yl)-4-methyl-7,8-dihydro-[1,4]dioxino[2′,3′:3,4]benzo[1,2-d]thiazol-7-yl)methoxy)carbonyl)amino)pyridin-2-yl) piperazine-1-carboxylate] was 210 nM. Consider `COc1cnc2c(-c3nc4c(C)cc5c(c4s3)OCC(COC(=O)Nc3ccc(N4CCCC4)nc3)O5)cc(C)cc2n1` (stereo not shown) [Example 137, (2-(2-methoxy-7-methylquinoxalin-5-yl)-4-methyl-7,8-dihydro-[1,4]dioxino[2′,3′:3,4]benzo[1,2-d]thiazol-7-yl)methyl (6-(pyrrolidin-1-yl)pyridin-3-yl)carbamate], for which the IC50 worked out at 6.1 nM. The value for `COC(=O)c1cncc(NC(=O)OCC2COc3c(cc(C)c4nc(-c5cc(C)cc6nc(OC)cnc56)sc34)O2)c1` (stereo not shown) [Example 138, methyl 5-((((2-(2-methoxy-7-methylquinoxalin-5-yl)-4-methyl-7,8-dihydro-[1,4]dioxino[2′,3′:3,4]benzo[1,2-d]thiazol-7-yl)methoxy)carbonyl)amino)nicotinate] was 3.4 nM; that for `COc1cnc2c(-c3nc4c(C)cc5c(c4s3)OCC(COC(=O)Nc3cnc4c(c3)CN(C(=O)OC(C)(C)C)CC4)O5)cc(C)cc2n1` (stereo not shown) [Example 139, tert-butyl 3-((((2-(2-methoxy-7-methylquinoxalin-5-yl)-4-methyl-7,8-dihydro-[1,4]dioxino[2′,3′:3,4]benzo[1,2-d]thiazol-7-yl)methoxy)carbonyl)amino)-7,8-dihydro-1,6-naphthyridine-6(5H)-carboxylate] was 2.1 nM; that for `COc1cnc2c(-c3nc4c(C)cc5c(c4s3)OCC(COC(=O)Nc3ccc(NC(C)=O)nc3)O5)cc(C)cc2n1` (stereo not shown) [Example 140, (2-(2-methoxy-7-methylquinoxalin-5-yl)-4-methyl-7,8-dihydro-[1,4]dioxino[2′,3′:3,4]benzo[1,2-d]thiazol-7-yl)methyl (6-acetamidopyridin-3-yl)carbamate] was 230 nM. For the molecule `COc1cnc2c(-c3nc4c(C)cc5c(c4s3)OCC(COC(=O)Nc3ccc(N)nc3)O5)cc(C)cc2n1` (stereo not shown) [Example 141, (2-(2-methoxy-7-methylquinoxalin-5-yl)-4-methyl-7,8-dihydro-[1,4]dioxino[2′,3′:3,4]benzo[1,2-d]thiazol-7-yl)methyl (6-aminopyridin-3-yl)carbamate], the IC50 is 170 nM. The value for `COc1cnc2c(-c3nc4c(C)cc5c(c4s3)OCC(COC(=O)Nc3cnc4[nH]ccc4c3)O5)cc(C)cc2n1` (stereo not shown) [Example 142, (2-(2-methoxy-7-methylquinoxalin-5-yl)-4-methyl-7,8-dihydro-[1,4]dioxino[2′,3′:3,4]benzo[1,2-d]thiazol-7-yl)methyl 1H-pyrrolo[2,3-b]pyridin-5-ylcarbamate] was 2.9 nM; that for `COCc1cnc2c(-c3nc4cc5c(cc4s3)OCO5)cc(C)cc2n1` [Example 143, 6-(2-(methoxymethyl)-7-methylquinoxalin-5-yl)-[1,3]dioxolo[4′,5′:4,5]benzo[1,2-d]thiazole] was 5.5 nM; that for `COc1cnc2c(-c3nc4ccc5c(c4s3)C[C@H](COC(=O)Nc3cnc(C)nc3)O5)cc(C)cc2n1` [Example 144, (R)-(2-(2-methoxy-7-methylquinoxalin-5-yl)-7,8-dihydrobenzofuro[5,4-d]thiazol-7-yl)me thyl (2-methylpyrimidin-5-yl)carbamate] was 1.2 nM. On to `COc1cnc2c(-c3nc4cc(F)c5c(c4s3)C[C@H](COC(=O)Nc3cnc(C)nc3)O5)cc(C)cc2n1` [Example 145, (R)-(5-fluoro-2-(2-methoxy-7-methylquinoxalin-5-yl)-7,8-dihydrobenzofuro[5,4-d]thiazo 1-7-yl)methyl (2-methylpyrimidin-5-yl)carbamate], for which the IC50 is 1.8 nM. The same measure for `COc1cnc2c(-c3nc4cc(F)c5c(c4s3)C[C@@H](CO)O5)cc(C)cc2n1` [Example 146, (S)-(5-fluoro-2-(2-methoxy-7-methylquinoxalin-5-yl)-7,8-dihydrobenzofuro[5,4-d]thiazol-7-yl)methanol]: 1.1 nM; for `COc1cnc2c(-c3nc4c(Cl)cc5c(c4s3)CC(COC(=O)Nc3ccc(C)nc3)O5)cc(CO)cc2n1` (stereo not shown) [Example 148, (4-chloro-2-(7-(hydroxymethyl)-2-methoxyquinoxalin-5-yl)-7,8-dihydrobenzofuro[5,4-d]thiazol-7-yl)methyl (6-methylpyridin-3-yl)carbamate]: 0.7 nM. The same measure for `COc1cnc2c(-c3nc4ccc5c(c4s3)C[C@@H](CO)O5)cc(C)cc2n1` [Example 149, (S)-(2-(2-methoxy-7-methylquinoxalin-5-yl)-7,8-dihydrobenzofuro[5,4-d]thiazol-7-yl)me thanol]: 1.5 nM; for `COc1cnc2c(-c3nc4ccc5c(c4s3)C[C@@H](COC(=O)Nc3cnc(C)nc3)O5)cc(C)cc2n1` [Example 150, (S)-(2-(2-methoxy-7-methylquinoxalin-5-yl)-7,8-dihydrobenzofuro[5,4-d]thiazol-7-yl)me thyl (2-methylpyrimidin-5-yl)carbamate]: 5.4 nM; for `COc1cnc2c(-c3nc4cc(F)c5c(c4s3)C[C@@H](COC(=O)Nc3cnc(C)nc3)O5)cc(C)cc2n1` [Example 151, (S)-(5-fluoro-2-(2-methoxy-7-methylquinoxalin-5-yl)-7,8-dihydrobenzofuro[5,4-d]thiazol-7-yl)methyl (2-methylpyrimidin-5-yl)carbamate]: 3.9 nM. The same measure for `CCOc1cnc2c(-c3nc4cc(F)c5c(c4s3)C[C@@H](CO)O5)cc(C)cc2n1` [Example 152, (S)-(2-(2-ethoxy-7-methylquinoxalin-5-yl)-5-fluoro-7,8-dihydrobenzofuro[5,4-d]thiazol-7-yl)methanol]: 11 nM; for `CCOc1cnc2c(-c3nc4cc(F)c5c(c4s3)C[C@H](COC(=O)Nc3cnc(C)nc3)O5)cc(C)cc2n1` [Example 153, (R)-(2-(2-ethoxy-7-methylquinoxalin-5-yl)-5-fluoro-7,8-dihydrobenzofuro[5,4-d]thiazol-7-yl)methyl (2-methylpyrimidin-5-yl)carbamate]: 2.4 nM. In the case of `COc1cnc2c(-c3nc4cc(F)c5c(c4s3)C[C@H](COC(=O)Nc3cncc(C#N)c3)O5)cc(C)cc2n1` [Example 154, (R)-(5-fluoro-2-(2-methoxy-7-methylquinoxalin-5-yl)-7,8-dihydrobenzofuro[5,4-d]thiazol-7-yl)methyl (5-cyanopyridin-3-yl)carbamate], the half-inhibitory concentration (IC50) is 6.3 nM. The value for `COc1cnc2c(-c3nc4cc(F)c5c(c4s3)C[C@H](COC(=O)Nc3cnc(CCO)nc3)O5)cc(C)cc2n1` [Example 155, (R)-(5-fluoro-2-(2-methoxy-7-methylquinoxalin-5-yl)-7,8-dihydrobenzofuro[5,4-d]thiazo 1-7-yl)methyl (2-(2-hydroxyethyl)pyrimidin-5-yl)carbamate] was 13 nM.
